Experimental data reported in article PMC5218480 (PLoS ONE, 2017).

Test system: MV-4-11 cells
Experiment: Gene expression microarray analysis (Affymetrix PrimeView) and GSEA
Assay type: cell-based, human
Set-up: RFU PODN (11730768_x_at) / Fold change /veh PODN (11730768_x_at) / RFU LINC00158 (11744669_a_at) / Fold change /veh LINC00158 (11744669_a_at) / RFU DUSP10 (11751237_a_at) / Fold change /veh DUSP10 (11751237_a_at) / RFU ID3 (11757404_x_at) / Fold change /veh ID3 (11757404_x_at) / RFU PLEKHG5 (11737974_s_at) / Fold change /veh PLEKHG5 (11737974_s_at) / RFU LRRC4B (11730491_at) / Fold change /veh LRRC4B (11730491_at) / RFU GIMAP4 (11747438_a_at) / Fold change /veh GIMAP4 (11747438_a_at) / RFU KRT8 (11758183_x_at) / Fold change /veh KRT8 (11758183_x_at) / RFU CNN1 (11734310_a_at) / Fold change /veh CNN1 (11734310_a_at) / RFU VPS37D (11726825_at) / Fold change /veh VPS37D (11726825_at) / RFU C10orf10 (11716522_x_at) / Fold change /veh C10orf10 (11716522_x_at) / RFU KIR2DL2 /// KIR2DL4 /// KIR2DL5A /// KIR2DL5B /// KIR2DS1 /// KIR2DS2 /// KIR2DS3 /// KIR2DS4 /// KIR3DL3 /// KIR3DL3 /// KIR3DS1 (11738374_at) / Fold change /veh KIR2DL2 /// KIR2DL4 /// KIR2DL5A /// KIR2DL5B /// KIR2DS1 /// KIR2DS2 /// KIR2DS3 /// KIR2DS4 /// KIR3DL3 /// KIR3DL3 /// KIR3DS1 (11738374_at) / RFU C1QL1 (11718748_at) / Fold change /veh C1QL1 (11718748_at) / RFU TMPRSS4 (11747572_a_at) / Fold change /veh TMPRSS4 (11747572_a_at) / RFU HAMP (11756126_x_at) / Fold change /veh HAMP (11756126_x_at) / RFU RNFT2 (11725882_a_at) / Fold change /veh RNFT2 (11725882_a_at) / RFU NR4A2 (11747474_a_at) / Fold change /veh NR4A2 (11747474_a_at) / RFU ABCC12 (11746883_a_at) / Fold change /veh ABCC12 (11746883_a_at) / RFU TMEM136 (11760407_x_at) / Fold change /veh TMEM136 (11760407_x_at) / RFU CLDN22 /// WWC2 (11732394_at) / Fold change /veh CLDN22 /// WWC2 (11732394_at) / RFU HLA-DPB1 (11760878_x_at) / Fold change /veh HLA-DPB1 (11760878_x_at) / RFU SPINT1 (11716480_a_at) / Fold change /veh SPINT1 (11716480_a_at) / RFU GAP43 (11754022_s_at) / Fold change /veh GAP43 (11754022_s_at) / RFU A4GNT (11735810_at) / Fold change /veh A4GNT (11735810_at) / RFU PRB3 (11715151_x_at) / Fold change /veh PRB3 (11715151_x_at) / RFU TUBB4B (11761932_at) / Fold change /veh TUBB4B (11761932_at) / RFU CAPN14 (11732068_a_at) / Fold change /veh CAPN14 (11732068_a_at) / RFU TMCC2 (11721928_a_at) / Fold change /veh TMCC2 (11721928_a_at) / RFU IRGQ (11745062_a_at) / Fold change /veh IRGQ (11745062_a_at) / RFU FAM174B (11720279_a_at) / Fold change /veh FAM174B (11720279_a_at) / RFU TMPRSS4 (11748680_a_at) / Fold change /veh TMPRSS4 (11748680_a_at) / RFU FAM212B (11763350_a_at) / Fold change /veh FAM212B (11763350_a_at) / RFU PLEKHG5 (11743358_a_at) / Fold change /veh PLEKHG5 (11743358_a_at) / RFU ZSCAN30 (11745921_a_at) / Fold change /veh ZSCAN30 (11745921_a_at) / RFU CMKLR1 (11741424_a_at) / Fold change /veh CMKLR1 (11741424_a_at) / RFU LOC101060620 /// MAPK8IP1 (11723275_at) / Fold change /veh LOC101060620 /// MAPK8IP1 (11723275_at) / RFU SPTSSB (11747773_x_at) / Fold change /veh SPTSSB (11747773_x_at) / RFU PRSS12 (11739890_at) / Fold change /veh PRSS12 (11739890_at) / RFU BIN1 (11741810_x_at) / Fold change /veh BIN1 (11741810_x_at) / RFU WNT11 (11732464_a_at) / Fold change /veh WNT11 (11732464_a_at) / RFU C10orf10 (11716521_a_at) / Fold change /veh C10orf10 (11716521_a_at) / RFU C5orf56 (11738089_at) / Fold change /veh C5orf56 (11738089_at) / RFU CYB561 (11721691_x_at) / Fold change /veh CYB561 (11721691_x_at) / RFU ANKRD19P (11752326_a_at) / Fold change /veh ANKRD19P (11752326_a_at) / RFU OR2T12 /// OR2T33 /// OR2T8 (11738714_s_at) / Fold change /veh OR2T12 /// OR2T33 /// OR2T8 (11738714_s_at) / RFU VCAN (11748164_a_at) / Fold change /veh VCAN (11748164_a_at) / RFU JSRP1 (11732532_at) / Fold change /veh JSRP1 (11732532_at) / RFU KRTAP10-11 (11738290_x_at) / Fold change /veh KRTAP10-11 (11738290_x_at) / RFU MYO3A (11730013_a_at) / Fold change /veh MYO3A (11730013_a_at) / RFU EBF3 (11725865_a_at) / Fold change /veh EBF3 (11725865_a_at) / RFU CAMK2N1 (11719241_x_at) / Fold change /veh CAMK2N1 (11719241_x_at) / RFU C5orf56 (11738088_a_at) / Fold change /veh C5orf56 (11738088_a_at) / RFU OLFML3 (11715873_a_at) / Fold change /veh OLFML3 (11715873_a_at) / RFU LOC100653217 /// NTM (11731650_a_at) / Fold change /veh LOC100653217 /// NTM (11731650_a_at) / RFU MAPK11 (11762145_a_at) / Fold change /veh MAPK11 (11762145_a_at) / RFU FIZ1 (11724087_x_at) / Fold change /veh FIZ1 (11724087_x_at) / RFU OASL (11726364_x_at) / Fold change /veh OASL (11726364_x_at) / RFU SOX15 (11748057_x_at) / Fold change /veh SOX15 (11748057_x_at) / RFU CD79A (11719716_a_at) / Fold change /veh CD79A (11719716_a_at) / RFU HIST1H1D (11736915_at) / Fold change /veh HIST1H1D (11736915_at) / RFU CASKIN2 (11723855_a_at) / Fold change /veh CASKIN2 (11723855_a_at) / RFU LOC730098 (11760151_x_at) / Fold change /veh LOC730098 (11760151_x_at) / RFU OR4N2 (11742367_at) / Fold change /veh OR4N2 (11742367_at) / RFU PRRT2 (11749266_a_at) / Fold change /veh PRRT2 (11749266_a_at) / RFU SNX32 (11753110_a_at) / Fold change /veh SNX32 (11753110_a_at) / RFU CDHR5 (11726645_a_at) / Fold change /veh CDHR5 (11726645_a_at) / RFU RCAN1 (11760418_a_at) / Fold change /veh RCAN1 (11760418_a_at) / RFU FAM167A (11723789_a_at) / Fold change /veh FAM167A (11723789_a_at) / RFU FAM26E (11764081_at) / Fold change /veh FAM26E (11764081_at) / RFU ISYNA1 (11749810_s_at) / Fold change /veh ISYNA1 (11749810_s_at) / RFU ACY1 (11761880_at) / Fold change /veh ACY1 (11761880_at) / RFU 11764098_at / Fold change /veh 11764098_at / RFU SAMD14 (11745864_x_at) / Fold change /veh SAMD14 (11745864_x_at) / RFU NPB (11741838_a_at) / Fold change /veh NPB (11741838_a_at) / RFU TMPRSS6 (11731388_a_at) / Fold change /veh TMPRSS6 (11731388_a_at) / RFU KRTAP10-2 (11738614_at) / Fold change /veh KRTAP10-2 (11738614_at) / RFU ARHGAP8 /// PRR5-ARHGAP8 (11727945_x_at) / Fold change /veh ARHGAP8 /// PRR5-ARHGAP8 (11727945_x_at) / RFU KRTAP5-7 /// NADSYN1 (11734609_at) / Fold change /veh KRTAP5-7 /// NADSYN1 (11734609_at) / RFU RASL12 (11751679_a_at) / Fold change /veh RASL12 (11751679_a_at) / RFU CDKN2B (11736163_a_at) / Fold change /veh CDKN2B (11736163_a_at) / RFU PRF1 (11729649_at) / Fold change /veh PRF1 (11729649_at) / RFU, ZNF638 /// ZNF638-IT1 / Fold change vs veh, ZNF638 /// ZNF638-IT1 / RFU, PANK3 / Fold change vs veh, PANK3 / RFU, SH3YL1 / Fold change vs veh, SH3YL1 / RFU, ZEB2 / Fold change vs veh, ZEB2 / RFU, NRIP1 / Fold change vs veh, NRIP1 / RFU, PTTG1IP / Fold change vs veh, PTTG1IP / RFU, CAPN2 / Fold change vs veh, CAPN2 / RFU, MED14 / Fold change vs veh, MED14 / RFU, SNORA58 / Fold change vs veh, SNORA58 / RFU, C1orf63 / Fold change vs veh, C1orf63 / RFU, LRRFIP1 / Fold change vs veh, LRRFIP1 / RFU, NDUFAF7 / Fold change vs veh, NDUFAF7 / RFU, SLC12A2 / Fold change vs veh, SLC12A2 / RFU, IBTK / Fold change vs veh, IBTK / RFU, ESF1 / Fold change vs veh, ESF1 / Fold change vs veh, TMEM50B / RFU, TAOK1 / Fold change vs veh, TAOK1 / RFU, ACBD3 / Fold change vs veh, ACBD3 / RFU, TMA16 / Fold change vs veh, TMA16 / RFU, RWDD3 / Fold change vs veh, RWDD3 / RFU, BCAT1 / Fold change vs veh, BCAT1 / RFU, EDEM3 / Fold change vs veh, EDEM3 / RFU, TMEM33 / Fold change vs veh, TMEM33 / RFU, WDR75 / Fold change vs veh, WDR75 / RFU, AHCTF1 / Fold change vs veh, AHCTF1 / RFU, TFRC / Fold change vs veh, TFRC / RFU, ZDHHC17 / Fold change vs veh, ZDHHC17 / RFU, NOM1 / Fold change vs veh, NOM1 / RFU, ARL8B / Fold change vs veh, ARL8B / RFU, ZBTB11 / Fold change vs veh, ZBTB11 / RFU, TAMM41 / Fold change vs veh, TAMM41 / RFU, KIAA1704 /// LOC100996395 / Fold change vs veh, KIAA1704 /// LOC100996395 / RFU, ING1 / Fold change vs veh, ING1 / RFU, TRMT61B / Fold change vs veh, TRMT61B / RFU, FUBP3 / Fold change vs veh, FUBP3 / RFU, TP53 / Fold change vs veh, TP53 / RFU, TNKS2 / Fold change vs veh, TNKS2 / RFU, ZFP14 / Fold change vs veh, ZFP14 / RFU, ACTR2 / Fold change vs veh, ACTR2 / RFU, PPP3R1 / Fold change vs veh, PPP3R1 / RFU, PIK3R1 / Fold change vs veh, PIK3R1 / RFU, HNRNPA1 / Fold change vs veh, HNRNPA1 / RFU, RNF170 / Fold change vs veh, RNF170 / RFU, ZNF28 / Fold change vs veh, ZNF28 / RFU, RNGTT / Fold change vs veh, RNGTT / RFU, OGT / Fold change vs veh, OGT / RFU, BRD1 / Fold change vs veh, BRD1 / RFU, MARS / Fold change vs veh, MARS / RFU, ZNF655 / Fold change vs veh, ZNF655 / RFU, FAHD1 / Fold change vs veh, FAHD1 / RFU, BDP1 / Fold change vs veh, BDP1 / RFU, LRRCC1 / Fold change vs veh, LRRCC1 / RFU, ARID1A / Fold change vs veh, ARID1A / RFU, ZNF146 / Fold change vs veh, ZNF146 / RFU, ZNF330 / Fold change vs veh, ZNF330 / RFU, GPN3 / Fold change vs veh, GPN3 / RFU, C9orf123 / Fold change vs veh, C9orf123 / RFU, N4BP2L2 / Fold change vs veh, N4BP2L2 / RFU, ARFIP1 / Fold change vs veh, ARFIP1 / RFU, FAM179B / Fold change vs veh, FAM179B / RFU, BCL10 / Fold change vs veh, BCL10 / RFU, UHRF1BP1L / Fold change vs veh, UHRF1BP1L / RFU, BET1 / Fold change vs veh, BET1 / RFU, CNOT2 / Fold change vs veh, CNOT2 / RFU, ZNF268 / Fold change vs veh, ZNF268 / Fold change vs veh, ZNF507 / RFU, DGCR2 / Fold change vs veh, DGCR2 / RFU, WDSUB1 / Fold change vs veh, WDSUB1 / Fold change vs veh, HSP90B1 /// MIR3652 / RFU, ADSS / Fold change vs veh, ADSS / RFU, GK / Fold change vs veh, GK / RFU, ZNF148 / Fold change vs veh, ZNF148 / RFU, TAF9 / Fold change vs veh, TAF9 / RFU, SLC1A5 / Fold change vs veh, SLC1A5 / RFU, SLMO2 / Fold change vs veh, SLMO2 / RFU, ABCC4 / Fold change vs veh, ABCC4 / RFU, LOC101060439 /// RAP1B / Fold change vs veh, LOC101060439 /// RAP1B / RFU, RFX7 / Fold change vs veh, RFX7 / RFU, GTPBP10 / Fold change vs veh, GTPBP10 / RFU, CNEP1R1 / Fold change vs veh, CNEP1R1 / RFU, BIVM-ERCC5 /// ERCC5 / Fold change vs veh, BIVM-ERCC5 /// ERCC5 / RFU, ILF3 / Fold change vs veh, ILF3 / RFU 11762660_at / Fold change /veh 11762660_at / RFU VCAN (11757783_s_at) / Fold change /veh VCAN (11757783_s_at) / RFU DDX43 (11728927_at) / Fold change /veh DDX43 (11728927_at) / RFU KRT8 (11758188_x_at) / Fold change /veh KRT8 (11758188_x_at) / RFU NKD1 (11759106_at) / Fold change /veh NKD1 (11759106_at) / RFU SRD5A1 (11742802_a_at) / Fold change /veh SRD5A1 (11742802_a_at) / RFU TPSAB1 /// TPSB2 (11721975_s_at) / Fold change /veh TPSAB1 /// TPSB2 (11721975_s_at) / RFU GSTM3 (11746129_a_at) / Fold change /veh GSTM3 (11746129_a_at) / RFU IL23R (11737362_x_at) / Fold change /veh IL23R (11737362_x_at) / RFU TMEM51 (11727254_a_at) / Fold change /veh TMEM51 (11727254_a_at) / RFU PIWIL2 (11732686_x_at) / Fold change /veh PIWIL2 (11732686_x_at) / RFU ORM1 (11744905_x_at) / Fold change /veh ORM1 (11744905_x_at) / RFU CCDC152 (11743942_at) / Fold change /veh CCDC152 (11743942_at) / RFU ECM1 (11717891_a_at) / Fold change /veh ECM1 (11717891_a_at) / RFU IL23R (11748794_a_at) / Fold change /veh IL23R (11748794_a_at) / RFU TNFAIP8L3 (11732012_x_at) / Fold change /veh TNFAIP8L3 (11732012_x_at) / RFU MBOAT4 (11741988_at) / Fold change /veh MBOAT4 (11741988_at) / RFU 11764193_at / Fold change /veh 11764193_at / RFU TMEM53 (11763286_at) / Fold change /veh TMEM53 (11763286_at) / RFU MAGEB2 (11727129_at) / Fold change /veh MAGEB2 (11727129_at) / RFU TMEM200A (11744735_a_at) / Fold change /veh TMEM200A (11744735_a_at) / RFU CCDC152 (11751479_a_at) / Fold change /veh CCDC152 (11751479_a_at) / RFU FAM211A (11726209_a_at) / Fold change /veh FAM211A (11726209_a_at) / RFU RGS16 (11746705_a_at) / Fold change /veh RGS16 (11746705_a_at) / RFU VCAN (11755009_s_at) / Fold change /veh VCAN (11755009_s_at) / RFU RHOB (11743442_s_at) / Fold change /veh RHOB (11743442_s_at) / RFU RGS16 (11720943_a_at) / Fold change /veh RGS16 (11720943_a_at) / RFU RGS16 (11720944_at) / Fold change /veh RGS16 (11720944_at) / RFU, VPS4B / Fold change vs veh, VPS4B / RFU, CREB1 / Fold change vs veh, CREB1 / RFU, DNAJC13 / Fold change vs veh, DNAJC13 / RFU, GNAQ / Fold change vs veh, GNAQ / RFU, CDK5R1 / Fold change vs veh, CDK5R1 / RFU, ZRANB3 / Fold change vs veh, ZRANB3 / RFU, CUL4A / Fold change vs veh, CUL4A / RFU, CCNY / Fold change vs veh, CCNY / RFU, UFL1 / Fold change vs veh, UFL1 / RFU, COG3 / Fold change vs veh, COG3 / RFU, DIAPH2 / Fold change vs veh, DIAPH2 / RFU, SKA2 / Fold change vs veh, SKA2 / RFU, AFF3 / Fold change vs veh, AFF3 / RFU, LMF1 / Fold change vs veh, LMF1 / RFU, IPO11 / Fold change vs veh, IPO11 / RFU, DFFB / Fold change vs veh, DFFB / RFU, FOXP1 / Fold change vs veh, FOXP1 / RFU, CARD8 / Fold change vs veh, CARD8 / RFU, STRN3 / Fold change vs veh, STRN3 / RFU, ADK / Fold change vs veh, ADK / RFU, RASSF2 / Fold change vs veh, RASSF2 / RFU, WIPF1 / Fold change vs veh, WIPF1 / RFU, LARP1B / Fold change vs veh, LARP1B / RFU, RASA1 / Fold change vs veh, RASA1 / RFU, RB1 / Fold change vs veh, RB1 / RFU, PPFIA1 / Fold change vs veh, PPFIA1 / RFU, MAT2A / Fold change vs veh, MAT2A / RFU, CCT5 / Fold change vs veh, CCT5 / RFU, WDR92 / Fold change vs veh, WDR92 / RFU, CUX1 / Fold change vs veh, CUX1 / RFU, TTC7A / Fold change vs veh, TTC7A / RFU, TMEM135 / Fold change vs veh, TMEM135 / RFU, DEPTOR / Fold change vs veh, DEPTOR / RFU, CPM / Fold change vs veh, CPM / RFU, DNAJB6 / Fold change vs veh, DNAJB6 / RFU, CACNA2D3 / Fold change vs veh, CACNA2D3 / RFU, DTX4 / Fold change vs veh, DTX4 / RFU, TFCP2 / Fold change vs veh, TFCP2 / RFU, GMCL1 /// GMCL1P1 / Fold change vs veh, GMCL1 /// GMCL1P1 / RFU, AEBP2 / Fold change vs veh, AEBP2 / RFU, SNHG1 /// SNORD22 /// SNORD25 /// SNORD26 /// SNORD27 /// SNORD28 /// SNORD29 /// SNORD31 / Fold change vs veh, SNHG1 /// SNORD22 /// SNORD25 /// SNORD26 /// SNORD27 /// SNORD28 /// SNORD29 /// SNORD31 / Fold change (Aza/veh), C12orf56 (ProbeSet 11735607_a_at) / Fold change (ACY-1035/veh), C12orf56 (ProbeSet 11735607_a_at) / Fold change (Aza/veh), FGFR1OP (ProbeSet 11751329_s_at) / Fold change (ACY-1035/veh), FGFR1OP (ProbeSet 11751329_s_at) / Fold change (Aza/veh), VPS36 (ProbeSet 11739960_a_at) / Fold change (ACY-1035/veh), VPS36 (ProbeSet 11739960_a_at) / RFU SYPL1 (11715823_x_at) / Fold change /veh SYPL1 (11715823_x_at) / RFU IGFBP7 (11715501_s_at) / Fold change /veh IGFBP7 (11715501_s_at) / RFU REEP3 (11722064_at) / Fold change /veh REEP3 (11722064_at) / RFU IGLL1 (11728026_x_at) / Fold change /veh IGLL1 (11728026_x_at): dose or concentration left out as unconfirmed
Conditions: ProbeSet 11740781_a_at; LIST B

Question: With `Nc1ccc(-c2cccs2)cc1NC(=O)c1ccc2c(c1)cc(C1CC1)n2CCN1CCOCC1` [ACY-1035] as the compound, how does the “RFU, ILF3” value read?
Answer: The value was 238.85 RFU.
